Structures can show the parent of a compound that is named as a salt.
Experiment: Surface free energy (work of cohesion) of particles
Assay type: physicochemical
Text: This property renders the primary particles very cohesive and prone to aggregation as described by B. Janczuk and T. Bialopiotrowicz, “Surface Free-Energy Components of Liquids and Low Energy Solids and Contact Angles,” in J. Colloid Interf. Sci. 127 (1989), p. 189-204; W. R. Good, “A Comparison of Contact Angle Interpretations,” in J. Colloid Interf. Sci. 44 (1973), p. 63; M. D. Lechner (Ed.), Landolt Börnstein, New Series, Vol. IV/16, “Surface Tension of Pure Liquids and Binary Liquid Mixture,” Springer Verlag, 1998; and J. J. Jasper, “The Surface Tension of Pure Liquid Compounds,” in J. Phys. Chem. Ref. Data, Vol. 1, No. 4, 1972, p. 859. […] Due to these limitations, it was not possible to develop a neratinib maleate formulation comprising a capsule or tablet of higher strength employing a direct compression or roller compaction processes successfully. A formulation using a conventional wet granulation method led to chemical degradation and stability issues.

CCOc1cc2ncc(C#N)c(Nc3ccc(OCc4ccccn4)c(Cl)c3)c2cc1NC(=O)/C=C/CN(C)C [Neratinib maleate, (E)-N-(4-(3-chloro-4-(pyridin-2-ylmethoxy)phenylamino)-3-cyano-7-ethoxyquinolin-6-yl)-4-(dimethylamino)but-2-enamide]
work of cohesion (surface free energy): 45.62 mN/m
